Values of other authors, collected in US20230304100A1, “METHOD OF PREDICTING THERAPEUTIC RESPONSE AND PROGNOSIS OF METASTATIC BREAST CANCER TO CHEMOTHERAPEUTIC AGENTS, AND TREATING METASTATIC BREAST CANCER” (Samsung Life Public Welfare Foundation, priority 2021, published 2023).

Tested on: premenopausal HR+/HER2− metastatic breast cancer patients
Details: Young-PEARL study

CCCCCOC(=O)Nc1nc(=O)n([C@@H]2O[C@H](C)[C@@H](O)[C@H]2O)cc1F [capecitabine]
median progression-free survival (PFS): 14.4 months
